Results taken from patent US9475759B2, “Tigecycline crystalline hydrate and preparation method therefor and use thereof” (priority 2011, dated 2016).

Experiment: Test for hygroscopicity (hygroscopic weight gain)
Format: physicochemical
Conditions: 25° C., relative humidity about 70%, about 5 g sample, sampling time 12 hours
Description: The tigecycline crystalline hydrates according to the invention can be stable for storage. A hygroscopicity test is conducted directed to a tigecycline hydrate sample and a tigecycline anhydride sample: about 5 g of the tigecycline anhydride and 5 g of the hydrate of the invention are taken, and they are placed in a dry and weight-constant surface vessel and precisely weighted. […] On the conditions of RH 75% and 30° C., the tigecycline crystalline hydrate is sealed in a vial for conducting a six-month acceleration stability test. According to the testing conditions of HPLC process of the tigecycline in relevant literatures: C18 (250 mm×4.6 mm, 5 μm) acetonitrile:phosphate buffer (1.29 g of citric acid and 2.76 g of anhydrous disodium hydrogen phosphate are dissolved in water and diluted to 1000 ml) (80:20) as the mobile phase; detection wavelength is 248 nm; the column temperature is room temperature; and the flowing rate is 1 ml/min. Under the conditions, the tigecycline contents and related substances are determined.
The tigecycline hydrates of the present invention may be stable for storage. Samples of tigecycline hydrates and anhydrides and amorphous tigecycline are used to conduct the test for hygroscopicity: respectively, about 5 g tigecycline anhydrides (obtained by drying tigecycline.0.5H2O hydrate prepared according to Example 1), about 5 g amorphous tigecycline (prepared by referring to the process as described in the reference document CN101367747A) and about 5 g the hydrates of the present invention are placed in a dry and constant weight watch glass, and the system is precisely weighed.

Row | SMILES | As compared to the sample time of 0 h, weight gains %
1 | CN(C)c1cc(NC(=O)CNC(C)(C)C)c(O)c2c1C[C@H]1C[C@H]3[C@H](N(C)C)C(O)=C(C(N)=O)C(=O)[C@@]3(O)C(O)=C1C2=O [Amorphous tigecyline, tigecycline] | 1.3%
2 | CN(C)c1cc(NC(=O)CNC(C)(C)C)c(O)c2c1C[C@H]1C[C@H]3[C@H](N(C)C)C(O)=C(C(N)=O)C(=O)[C@@]3(O)C(O)=C1C2=O [Tigecycline anhydride] | 1.4%
3 | CN(C)c1cc(NC(=O)CNC(C)(C)C)c(O)c2c1C[C@H]1C[C@H]3[C@H](N(C)C)C(O)=C(C(N)=O)C(=O)[C@@]3(O)C(O)=C1C2=O.CN(C)c1cc(NC(=O)CNC(C)(C)C)c(O)c2c1C[C@H]1C[C@H]3[C@H](N(C)C)C(O)=C(C(N)=O)C(=O)[C@@]3(O)C(O)=C1C2=O.O [Tigecycline•0.5 H2O hydrate, Tigecycline.0.5H2O Hydrate] | 0.2%
4 | CN(C)c1cc(NC(=O)CNC(C)(C)C)c(O)c2c1CC1CC3C(N(C)C)C(O)=C(C(N)=O)C(=O)C3(O)C(O)=C1C2=O.O.O (stereo not shown) [Tigecycline•2 H2O hydrate, Tigecycline.2H2O Hydrate] | 0.1%
